Measured values published in paper PMC6321291, “Synthesis, Biological Evaluation and Docking Studies of Benzoxazoles Derived from Thymoquinone” (Molecules, 2018).
Converted amounts (≈) assume the structure as drawn. Read-outs that look alike come from different tables or passages of the source.

Assays:
[1] = tested on: Staphylococcus aureus ATCC 6538; experiment: Micro-dilution MIC assay, S. aureus; type: cell-based; conditions: ATCC6538, 24 h at 37 °C
Experimental: (§1) Antimicrobial activity of compounds was evaluated in vitro on eight bacterial strains (Escherichia coli ATCC 25922 (ATCC = American Type Culture Collection, Manassas, VA, USA), Pseudomonas aeruginosa ATCC 9027, Proteus hauseri ATCC 13315, Klebsiella pneumoniae ATCC 10031, Staphylococcus aureus ATCC 6538, Bacillus subtilis ATCC 6633, Clostridium sporogenes ATCC 19404 and Micrococcus luteus ATCC 10240) and three fungi (Candida albicans ATCC 10231, Saccharomyces cerevisiae ATCC 9763 and Aspergillus brasiliensis ATCC 16404).
(§2) Micro-dilution assay was used for determination of tested compounds MIC. A serial dilution method in sterile 96-well microtitre plates was performed. Fresh Mueller–Hinton broth (for bacteria) and Sabouraud dextrose broth (for fungi) were used. In sterile physiological solution, suspensions containing 1.5 × 10^8 CFU mL^−1 for bacteria and 1.5 × 10^7 CFU mL^−1 for fungi were made (according to McFarland). One hundred microliters of broth were added to each well of the plate. Stock solutions of tested compounds were made in DMSO at concentration 10 mg mL^−1, and then 100 μL of the compound stock solution was added to each well of the first column. Double dilution was made in whole row for one tested compound, and repeated for all tested compounds in other rows. Amikacin served as positive control for bacteria, while nystatin served as positive control for fungi. The solvent (DMSO) was used as the negative control. Afterwards, each well was inoculated with 10 μL of microorganism suspension. After incubation, 24 h at 37 °C for bacteria and 48 h at 25 °C for fungi, results were read. The lowest concentration where no growth of microorganism was detected represented MIC.

[2] = tested on: Proteus hauseri ATCC 13315; experiment: Micro-dilution MIC assay, P. hauseri; type: cell-based; conditions: ATCC13315, 24 h at 37 °C
Experimental: as §1, §2

[3] = tested on: Escherichia coli ATCC 25922; experiment: Micro-dilution MIC assay, E. coli; type: cell-based; conditions: ATCC25922, 24 h at 37 °C
Experimental: as §1, §2

[4] = tested on: Bacillus subtilis ATCC 6633; experiment: Micro-dilution MIC assay, B. subtilis; type: cell-based; conditions: ATCC6633, 24 h at 37 °C
Experimental: as §1, §2

[5] = tested on: Clostridium sporogenes ATCC 19404; experiment: Micro-dilution MIC assay, C. sporogenes; type: cell-based; conditions: ATCC19404, 24 h at 37 °C
Experimental: as §1, §2

[6] = tested on: Klebsiella pneumoniae ATCC 10031; experiment: Micro-dilution MIC assay, K. pneumoniae; type: cell-based; conditions: ATCC10031, 24 h at 37 °C
Experimental: as §1, §2

[7] = tested on: Micrococcus luteus ATCC 10240; experiment: Micro-dilution MIC assay, M. luteus; type: cell-based; conditions: ATCC10240, 24 h at 37 °C
Experimental: as §1, §2

[8] = tested on: Pseudomonas aeruginosa ATCC 9027; experiment: Micro-dilution MIC assay, P. aeruginosa; type: cell-based; conditions: ATCC9027, 24 h at 37 °C
Experimental: as §1, §2

[9] = tested on: HepG2 (hepatocellular carcinoma); experiment: MTT assay, HepG2; type: cell-based; conditions: Homo sapiens, 72 h
Experimental: (§3) The tested compounds were dissolved in DMSO in five, 10-fold dilutions (0.01–100 µM). The cell lines HeLa (cervical carcinoma), SW620 (colorectal adenocarcinoma, metastatic), HepG2 (hepatocellular carcinoma), CFPAC-1 (ductal pancreatic adenocarcinoma), and WI38 (human lung fibroblast cell line), were cultured as monolayers and maintained in Dulbecco’s modified Eagle medium (DMEM) supplemented with 10% fetal bovine serum (FBS), 2 mM L-glutamine, 100 U mL^−1 penicillin and 100 μg mL^−1 streptomycin in a humidified atmosphere with 5% CO2 at 37 °C.
(§4) The MTT assay was used for evaluation of effects of tested compounds on viability of carcinoma and control cell lines. About 5000 cells per well were seeded onto a series of standard 96-well plates on day 0. Test agents were then added and incubated for further 72 h. Working dilutions of tested compounds were freshly prepared in the growth medium, on the day of testing. The solvent (DMSO) was also tested for eventual inhibitory activity by adjusting its concentration to be the same as in the working concentrations (DMSO concentration never exceeded 0.1%). After 72 h of incubation, the cell growth rate was evaluated by performing the MTT assay: experimentally determined absorbance values were transformed into a cell percentage growth (PG) using the formulas proposed by NIH and described previously. This method directly relies on control cells number at the day of assay because it compares the growth of treated cells with the growth of untreated cells in control wells on the same plate, the results are therefore a percentile difference from the calculated expected value.
(§5) If, however, all of the tested concentrations produce PGs exceeding the respective reference level of effect (e.g., PG value of 50) for a given cell line, the highest tested concentration is assigned as the default value (in the screening data report that default value is preceded by a “>” sign). Each test point was performed in quadruplicate in three individual experiments. The results were statistically analyzed (Analysis of variance (ANOVA), Tukey post-hoc test at p < 0.05). Finally, the effects of the tested substances were evaluated by plotting the mean percentage growth for each cell type in comparison to control on dose response graphs.

[10] = MTT assay, WI38 healthy control; type: cell-based; conditions: WI38 human lung fibroblast cells, WI38 healthy control human fibroblast cell line
Experimental: as §3, §4, §5

phospho (Ser 473) Akt [11] = experiment: Western blot, pAkt in HeLa cells; type: cell-based, human; conditions: IC50 concentration, 48 h treatment
Experimental: (§6) Protein lysates were lysed in the buffer 50 mM Tris HCl (pH 8), 150 mM NaCl, 1% NP-40, 0.5% sodium deoxycholate, 0.1% SDS and protease and phosphatase inhibitor cocktail (Roche, Basel, Switzerland). A total of 50 μg of proteins were resolved on 10% SDS polyacrylamide gels by use of Mini-protean cell (Bio-Rad, Hercules, CA, USA). Membranes were incubated with primary antibodies against phospho (Tyr 1135) -IGF1 Receptor β (1:1000, rabbit mAb, Cell Signalling Technology, Danvers, MA, USA), phospho (Ser 473) Akt (1:1000, rabbit mAb, Cell Signalling Technology) and α tubulin (1:1000, mouse mAb, Sigma Aldrich) at 4 °C overnight. Secondary antibody linked to anti-mouse was used at 1:1000 (Dako, Santa Clara, CA, USA) and to anti-rabbit at 1:1000 (Dako). Signals were visualized by Western Lightening Chemiluminescence Reagent Plus Kit (Perkin Elmer, USA) on the ImageQuant LAS500 (GE Healthcare, Chicago, IL, USA). Signal intensities of particular bands were normalized with the intensity of the loading control α tubulin and compared in Quantity One software (Bio-Rad). The values are expressed as average value of three independent experiments ± standard error of the mean. Statistical analysis was performed in Microsoft Excel (Microsoft Corporation, Redmond, WA, USA) by using the ANOVA (p < 0.05).

[12] = tested on: phospho (Tyr 1135) -IGF1 Receptor β; experiment: Western blot, IGF1 Receptor β activated form in HeLa cells; type: cell-based, human; conditions: IC50 concentration, 24 and 48 h treatments
Experimental: as §6

phospho (Ser 473) Akt [13] = experiment: Western blot, pAkt in HepG2 cells; type: cell-based, human; conditions: IC50 concentration
Experimental: as §6

[14] = tested on: phospho (Tyr 1135) -IGF1 Receptor β; experiment: Western blot, IGF1 Receptor β activated form in HepG2 cells; type: cell-based, human; conditions: IC50 concentration
Experimental: as §6

[15] = tested on: CFPAC-1 (ductal pancreatic adenocarcinoma); experiment: MTT assay, CFPAC-1; type: cell-based; conditions: Homo sapiens, 72 h
Experimental: as §3, §4, §5

[16] = tested on: HeLa (cervical carcinoma); experiment: MTT assay, HeLa; type: cell-based; conditions: Homo sapiens, 72 h
Experimental: as §3, §4, §5

[17] = tested on: SW620 (colorectal adenocarcinoma, metastatic); experiment: MTT assay, SW620; type: cell-based; conditions: Homo sapiens, SW-620, 72 h
Experimental: as §3, §4, §5

[18] = tested on: Aspergillus brasiliensis ATCC 16404; experiment: Micro-dilution MIC assay, A. brasiliensis; type: cell-based; conditions: A. braziliensis, 48 h at 25 °C
Experimental: as §1, §2

[19] = tested on: Candida albicans ATCC 10231; experiment: Micro-dilution MIC assay, C. albicans; type: cell-based
Experimental: as §1, §2

[20] = tested on: Saccharomyces cerevisiae ATCC 9763; experiment: Micro-dilution MIC assay, S. cerevisiae; type: cell-based
Experimental: as §1, §2

IC50 [9] [µM]	IC50 at 72 h [10] [µM]	IC50 [15] [µM]	IC50 [16] [µM]	IC50 [17] [µM]	melting point [°C]	SMILES	MIC [1] [µM]	MIC [2] [µM]	MIC [3] [µM]	MIC [4] [µM]	MIC [5] [µM]	MIC [6] [µM]	MIC [7] [µM]	MIC [8] [µM]	further results
						NCC[C@H](O)C(=O)N[C@@H]1C[C@H](N)[C@@H](O[C@H]2O[C@H](CN)[C@@H](O)[C@H](O)[C@H]2O)[C@H](O)[C@H]1O[C@H]1O[C@H](CO)[C@@H](O)[C@H](N)[C@H]1O [Amikacin, amikacin]	18.8 (≈ 11 µg/mL)	11.9 (≈ 7 µg/mL)	8.54 (≈ 5 µg/mL)	71.7 (≈ 42 µg/mL)	25.6 (≈ 15 µg/mL)	13.7 (≈ 8.03 µg/mL)	3.42 (≈ 2 µg/mL)	85.4 (≈ 50 µg/mL)	
9.36	5.54	33.8	4.13	5.82		Cc1c(O)cc(C(C)C)c2oc(-c3ccc(F)cc3)nc12 [1f, 2-(4-Fluorophenyl)-4-methyl-7-isopropyl-1,3-benzoxazole-5-ol]									pAkt levels (western blot) (phospho (Ser 473) Akt [11]): significantly decreased pAkt levels; IGF1 Receptor β activated form expression (western blot) [12]: not detectable; inhibition of Akt phosphorylation (western blot) (phospho (Ser 473) Akt [13]; 24 h treatment): significant effect; pAkt signal (western blot) (phospho (Ser 473) Akt [13]; 48 h treatment): absence of pAkt signal; IGF1 Receptor β activated form expression (western blot) ([14]; 24 h treatment): significantly decreased expression; IGF1 Receptor β activated form expression (western blot) ([14]; 48 h treatment): lack of signal
						C[C@@H]1[C@H](O)[C@@H](C)/C=C/C=C/CC/C=C/C=C/C=C/C=C/C(O[C@H]2O[C@H](C)[C@@H](O)[C@H](N)[C@@H]2O)CC2O[C@](O)(CC(O)C(O)CCC(O)CC(O)CC(O)CC(=O)O[C@H]1C)CC(O)C2C(=O)O (some centres unmarked) [Nystatin, nystatin]									MIC [18]: 1350 µM (≈ 1250 µg/mL); MIC ([19]; 48 h at 25 °C): 2700 µM (≈ 2500 µg/mL); MIC ([20]; 48 h at 25 °C): 1350 µM (≈ 1250 µg/mL)
30.5	57.6	34.5	30.1	51.5	190	Cc1c(O)cc(C(C)C)c2oc(-c3ccc(Br)cc3)nc12 [1d, 2-(4-Bromophenyl)-4-methyl-7-isopropyl-1,3-benzoxazole-5-ol]									
> 100	6.21	> 100	> 100	54.9	188	Cc1c(O)cc(C(C)C)c2oc(-c3ccc([N+](=O)[O-])cc3)nc12 [1g, 4-Methyl-2-(4-nitrophenyl)-7-isopropyl-1,3-benzoxazole-5-ol]									

SMILES	IC50 [9] [µM]	IC50 at 72 h [10] [µM]	IC50 [15] [µM]	IC50 [16] [µM]	IC50 [17] [µM]	melting point [°C]	MIC [1] [µM]	MIC [2] [µM]	MIC [3] [µM]	MIC [4] [µM]	MIC [5] [µM]	MIC [6] [µM]	MIC [7] [µM]	MIC [8] [µM]	further results
CC1=CC(=O)C(C(C)C)=CC1=O [TQ, Thymoquinone]	24	19.8	48.3	28.9	40		29.8 (≈ 4.9 µg/mL)	29.8 (≈ 4.9 µg/mL)	29.8 (≈ 4.9 µg/mL)	59.7 (≈ 9.8 µg/mL)	122 (≈ 20 µg/mL)	59.7 (≈ 9.8 µg/mL)	59.7 (≈ 9.8 µg/mL)	59.7 (≈ 9.8 µg/mL)	MIC ([18]; Aspergillus brasiliensis, ATCC16404, read-out: MIC): 3810 µM (≈ 626 µg/mL); MIC ([19]; Candida albicans, ATCC10231, 48 h at 25 °C, read-out: MIC): 3810 µM (≈ 626 µg/mL); MIC ([20]; Saccharomyces cerevisiae, ATCC9763, 48 h at 25 °C, read-out: MIC): 1900 µM (≈ 312 µg/mL)
